Patent US11008346B2, “Beta-lactamase inhibitors” (priority 2014, dated 2021)
Like-named read-outs stand apart in the source and are kept apart here.

Legend:
[1] = tested on: S. aureus MSSA-7 producing penicillinase PC-1; assay: broth microdilution MIC, S. aureus PC-1; type: cell-based; conditions: Fixed Pip (piperacillin) 4 μg/mL
Description: (§1) To determine the ability of test compounds to potentiate the inhibition of the growth of bacterial strains that produce beta-lactamase enzymes, classic cell based broth microdilution MIC assays were employed. Six bacteria strains producing beta-lactamase enzymes were used: E. coli expressing the Class A Extended Spectrum Beta-Lactamase (ESBL) CTX-M-15, E. cloacae expressing the Class C P99, K. pneumoniae expressing the Class A carbapenemase KPC-3, P. aeruginosa expressing the Class B carbapenemase VIM-2, K pneumoniae expressing the class A carbapenemase KPC-2 and the class B carbapenemase VIM-4, and S. aureus producing the Class A penicillinase PC-1. The assay was conducted in Cation Adjusted Mueller Hinton Broth (CAMHB, BD #212322, BD Diagnostic Systems, Sparks, Md.). Bacteria strains were grown for 3-5 hours in CAMBH broth. Test compounds were added to a microtiter plate in 2-fold serial dilutions in CAMHB in a final concentration range of 32 μg/mL to 0.25 μg/ml. An overlay of CAMHB containing a Beta-lactam was added to the compounds at a final static concentration of 4 μg/ml. […] In addition to the titration of test compounds the MICs of a panel of control beta-lactams is also tested to ensure the strains are behaving consistently from test to test. Once the test compound and antibiotics are added the plates can be inoculated according to CLSI broth microdilution method. After inoculation the plates are incubated for 16-20 hours at 37° C., then the Minimal Inhibitory Concentration (MIC) of the test compound is determined visually.
(§2) Using the methodology described above, examples of the current invention were evaluated for their ability to inhibit the growth of β-lactamase-producing bacteria in the presence of a β-lactam antibiotic.
(§3) Representative results are shown in Table 4 where A represents an MIC of the fixed β-lactam antibiotic in the presence of >32 µg/mL of a β-lactamase inhibitor of exemplary compounds, B represents the MIC in the presence of between 8 and 32 µg/mL of a β-lactamase inhibitor of exemplary compounds, and C represents the MIC in the presence of ≤4 µg/mL of a β-lactamase inhibitor of exemplary compounds. NT=Not Tested.

OXA-1 β-lactamase = target: T1, OXA-1 β-lactamase (Escherichia coli, UniProt P13661); assay: β-lactamase enzyme inhibition, OXA-1; type: biochemical; conditions: Nitrocefin 100 μM, 486 nm; 15 min at 37° C. preincubation; read-out: IC50 OXA-1 (Class D)
T1 construct: made in house; host or cells: E. coli BL21(DE3)
Procedure, shortened: (§4)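 Enzyme + inhibitor, 15 min, 37° C; substrate added, absorbance read 10 min. OXA-1/p99 AmpC: nitrocefin 100 μM final, A486. KPC-2: imipenem, A300. SHV-5: cefotaxime, A260. IC50 = 50% drop in initial hydrolysis rate vs no-inhibitor control.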

[2] = tested on: E. coli ESBL4 expressing CTX-M-15; assay: broth microdilution MIC, E. coli CTX-M-15; type: cell-based; conditions: Fixed CAZ (ceftazidime) 4 μg/mL
Procedure, shortened: (§5)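 The inhibitor is titrated in twofold steps (final 32 to 0.25 μg/mL) alongside a static 4 μg/mL beta-lactam in CAMHB, with CLSI inoculation. After 16-20 hours at 37° C, growth inhibition is scored by eye.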

p99 AmpC β-lactamase = target: T2, p99 AmpC β-lactamase (Enterobacter cloacae, UniProt P05364); assay: β-lactamase enzyme inhibition, p99 AmpC; type: biochemical
T2 construct: made in house; host or cells: E. coli BL21(DE3)
Procedure, shortened: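 Inhibitor and enzyme were incubated 15 min at 37°C first. The enzyme was recombinant p99 AmpC, untagged, from E. coli BL21(DE3), purified by ion-exchange and size-exclusion chromatography.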

[3] = tested on: P. aeruginosa Ps296 expressing VIM-2; assay: broth microdilution MIC, P. aeruginosa VIM-2; type: cell-based; conditions: for MIC of exemplary compounds in presence of fixed β-lactams, P. aerug. Ps296 VIM-2: Fixed Mero (meropenem) 4 μg/mL
Description: as §1, §2, §3

[4] = tested on: E. cloacae 144200 expressing Class C P99 AmpC; assay: broth microdilution MIC, E. cloacae P99; type: cell-based; conditions: Fixed CAZ (ceftazidime) 4 μg/mL
Procedure, shortened: as §5

SHV-5 β-lactamase = target: T3, SHV-5 β-lactamase (Klebsiella pneumoniae, UniProt P0A3M1); assay: β-lactamase enzyme inhibition, SHV-5; type: biochemical
T3 construct: made in house; host or cells: E. coli BL21(DE3)
Procedure, shortened: as §4

[5] = tested on: K. pneumoniae 156319 expressing KPC-3; assay: broth microdilution MIC, K. pneumoniae KPC-3; type: cell-based; conditions: for MIC of exemplary compounds in presence of fixed β-lactams, K.P. 156319 KPC-3: Fixed Mero (meropenem) 4 μg/mL
Procedure, shortened: as §5

[6] = target: T4, VIM-2 metallo β-lactamase (Pseudomonas aeruginosa, UniProt Q9K2N0); assay: β-lactamase enzyme inhibition, VIM-2; type: biochemical; conditions: Nitrocefin 100 μM, 486 nm; 15 min at 37° C. preincubation; read-out: IC50 VIM-2 (Class B)
T4 construct: made in house; host or cells: E. coli BL21(DE3)
Procedure, shortened: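 Inhibitor and enzyme sat together 15 min at 37° C before 100 μM nitrocefin (final) was added and 486 nm absorbance read for 10 min. IC50 is the concentration halving initial hydrolysis rate relative to uninhibited wells. Protein came from Q sepharose anion exchange at pH 7.5, repeated to >90% purity.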

[7] = tested on: K. pneumoniae A-1797 expressing KPC-2 and VIM-4; assay: broth microdilution MIC, K. pneumoniae KPC-2 and VIM-4; type: cell-based; conditions: for MIC of exemplary compounds in presence of fixed β-lactams, K.P. A-1797 KPC-2 VIM-4: Fixed Mero (meropenem) 4 μg/mL
Procedure, shortened: as §5

KPC-2 β-lactamase = target: T5, KPC-2 β-lactamase (Klebsiella pneumoniae, UniProt Q9F663); assay: β-lactamase enzyme inhibition, KPC-2; type: biochemical
T5 construct: made in house; host or cells: E. coli BL21(DE3)
Procedure, shortened: as §4

[8] = Klebsiella pneumoniae, read-out: MIC alone

T3 sequence (P0A3M1 22-286): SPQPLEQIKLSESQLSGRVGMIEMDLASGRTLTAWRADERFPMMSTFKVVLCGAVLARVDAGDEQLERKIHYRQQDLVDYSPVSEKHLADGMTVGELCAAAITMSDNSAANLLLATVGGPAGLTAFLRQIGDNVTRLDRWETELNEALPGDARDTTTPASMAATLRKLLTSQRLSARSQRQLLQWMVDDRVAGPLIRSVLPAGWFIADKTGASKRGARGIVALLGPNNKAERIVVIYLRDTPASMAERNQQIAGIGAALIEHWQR
T5 sequence (Q9F663 25-293, looked up): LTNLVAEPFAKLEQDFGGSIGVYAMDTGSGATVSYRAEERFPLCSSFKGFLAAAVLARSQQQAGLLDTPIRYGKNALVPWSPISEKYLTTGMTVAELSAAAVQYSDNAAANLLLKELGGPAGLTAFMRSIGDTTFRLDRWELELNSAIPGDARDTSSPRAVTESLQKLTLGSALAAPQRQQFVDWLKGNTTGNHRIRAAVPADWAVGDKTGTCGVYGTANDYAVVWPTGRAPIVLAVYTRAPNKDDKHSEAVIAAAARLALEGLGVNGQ
T1 sequence (P13661 26-276): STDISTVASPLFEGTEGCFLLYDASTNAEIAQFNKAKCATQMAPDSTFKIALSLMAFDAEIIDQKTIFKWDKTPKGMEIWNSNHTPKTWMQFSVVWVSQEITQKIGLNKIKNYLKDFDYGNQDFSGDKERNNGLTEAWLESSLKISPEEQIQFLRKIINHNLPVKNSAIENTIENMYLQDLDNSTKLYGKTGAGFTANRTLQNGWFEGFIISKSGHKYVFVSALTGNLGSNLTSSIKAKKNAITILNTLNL
T2 sequence (P05364 21-381): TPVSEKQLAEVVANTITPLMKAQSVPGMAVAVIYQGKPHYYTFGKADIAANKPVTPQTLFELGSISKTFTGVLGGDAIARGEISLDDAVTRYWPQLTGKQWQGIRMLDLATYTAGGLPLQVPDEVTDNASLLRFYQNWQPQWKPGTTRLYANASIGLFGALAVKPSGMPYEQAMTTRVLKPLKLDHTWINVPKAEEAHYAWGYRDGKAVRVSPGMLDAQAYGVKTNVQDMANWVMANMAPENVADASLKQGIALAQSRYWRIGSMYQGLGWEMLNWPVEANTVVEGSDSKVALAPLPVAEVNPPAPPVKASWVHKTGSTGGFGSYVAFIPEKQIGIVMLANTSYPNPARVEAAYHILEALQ

Structure (SMILES): CC(=O)N[C@H]1Cc2cccc(C(=O)O)c2OB1O [Example 61, (R)-3-Acetylamino-2-hydroxy-3,4-dihydro-2H-benzo[e][1,2]oxaborinine-8-carboxylic acid]
- MIC of exemplary compounds in presence of fixed β-lactams, S. aureus MSSA-7 PC-1 [1]: C (C represents the MIC in the presence of ≤4 g/mL of a β-lactamase inhibitor)
- IC50 (OXA-1 β-lactamase): 0.1 to 1 µM
- MIC of exemplary compounds in presence of fixed β-lactams, E. coli ESBL4 CTX-M-15 [2]: C (C represents the MIC in the presence of ≤4 g/mL of a β-lactamase inhibitor)
- IC50 (p99 AmpC β-lactamase): < 0.1 µM
- MIC of exemplary compounds in presence of fixed β-lactams, P. aerug. Ps296 VIM-2 [3]: C (C represents the MIC in the presence of ≤4 g/mL of a β-lactamase inhibitor)
- MIC of exemplary compounds in presence of fixed β-lactams, E. cl. 144200 p99 AmpC [4]: C (C represents the MIC in the presence of ≤4 g/mL of a β-lactamase inhibitor)
- IC50 (SHV-5 β-lactamase): 0.1 to 1 µM
- MIC of exemplary compounds in presence of fixed β-lactams, K.P. 156319 KPC-3 [5]: C (C represents the MIC in the presence of ≤4 g/mL of a β-lactamase inhibitor)
- IC50 [6]: 1 to 10 µM
- MIC of exemplary compounds in presence of fixed β-lactams, K.P. A-1797 KPC-2 VIM-4 [7]: B (B represents the MIC in the presence of between 8 and 32 g/mL of a β-lactamase inhibitor)
- IC50 (KPC-2 β-lactamase; imipenem substrate, 300 nm, 15 min at 37° C. preincubation, read-out: IC50 KPC-2 (Class A)): < 0.1 µM

Structure (SMILES): CC(=O)CCC(=O)N[C@H]1Cc2cccc(C(=O)O)c2OB1O [Example 10, (R)-2-Hydroxy-3-(4-oxo-pentanoylamino)-3,4-dihydro-2H-benzo[e][1,2]oxaborinine-8-carboxylic acid]
- MIC of exemplary compounds in presence of fixed β-lactams, S. aureus MSSA-7 PC-1 [1]: C (C represents the MIC in the presence of ≤4 g/mL of a β-lactamase inhibitor)
- IC50 (OXA-1 β-lactamase): < 0.1 µM
- MIC of exemplary compounds in presence of fixed β-lactams, E. coli ESBL4 CTX-M-15 [2]: C (C represents the MIC in the presence of ≤4 g/mL of a β-lactamase inhibitor)
- IC50 (p99 AmpC β-lactamase): < 0.1 µM
- MIC of exemplary compounds in presence of fixed β-lactams, P. aerug. Ps296 VIM-2 [3]: C (C represents the MIC in the presence of ≤4 g/mL of a β-lactamase inhibitor)
- MIC of exemplary compounds in presence of fixed β-lactams, E. cl. 144200 p99 AmpC [4]: C (C represents the MIC in the presence of ≤4 g/mL of a β-lactamase inhibitor)
- IC50 (SHV-5 β-lactamase): < 0.1 µM
- MIC of exemplary compounds in presence of fixed β-lactams, K.P. 156319 KPC-3 [5]: C (C represents the MIC in the presence of ≤4 g/mL of a β-lactamase inhibitor)
- IC50 [6]: 0.1 to 1 µM
- MIC of exemplary compounds in presence of fixed β-lactams, K.P. A-1797 KPC-2 VIM-4 [7]: C (C represents the MIC in the presence of ≤4 g/mL of a β-lactamase inhibitor)
- IC50 (KPC-2 β-lactamase): 0.1 to 1 µM

Structure (SMILES): C[C@@H](O)[C@H]1C(=O)N2C(C(=O)O)=C(S[C@@H]3CN[C@H](C(=O)N(C)C)C3)[C@H](C)[C@H]12 [Meropenem, meropenem, reference compound]
- MIC alone ([3]; partner antibiotic alone, P. aeruginosa expressing VIM-2): 16 µg/mL
- MIC [5, 8]: > 128 µg/mL
- MIC [7, 8]: 64 µg/mL

Structure (SMILES): CCC(=O)N[C@H]1Cc2cccc(C(=O)O)c2OB1O [Example 62, (R)-2-Hydroxy-3-propionylamino-3,4-dihydro-2H-benzo[e][1,2]oxaborinine-8-carboxylic acid]
- MIC of exemplary compounds in presence of fixed β-lactams, S. aureus MSSA-7 PC-1 [1]: C (C represents the MIC in the presence of ≤4 g/mL of a β-lactamase inhibitor)
- IC50 (OXA-1 β-lactamase): < 0.1 µM
- MIC of exemplary compounds in presence of fixed β-lactams, E. coli ESBL4 CTX-M-15 [2]: C (C represents the MIC in the presence of ≤4 g/mL of a β-lactamase inhibitor)
- MIC of exemplary compounds in presence of fixed β-lactams, P. aerug. Ps296 VIM-2 [3]: B (B represents the MIC in the presence of between 8 and 32 g/mL of a β-lactamase inhibitor)
- MIC of exemplary compounds in presence of fixed β-lactams, E. cl. 144200 p99 AmpC [4]: C (C represents the MIC in the presence of ≤4 g/mL of a β-lactamase inhibitor)
- IC50 (SHV-5 β-lactamase): 0.1 to 1 µM
- MIC of exemplary compounds in presence of fixed β-lactams, K.P. 156319 KPC-3 [5]: C (C represents the MIC in the presence of ≤4 g/mL of a β-lactamase inhibitor)
- IC50 [6]: 1 to 10 µM
- MIC of exemplary compounds in presence of fixed β-lactams, K.P. A-1797 KPC-2 VIM-4 [7]: B (B represents the MIC in the presence of between 8 and 32 g/mL of a β-lactamase inhibitor)
- IC50 (KPC-2 β-lactamase): < 0.1 µM
